Test in all cases: isothermal titration calorimetry
Holding throughout (type): binding
(ITC needs no label: the signal is the heat of the interaction.)

Experiment [1] deals with T1, human CblA (MMAA) (Homo sapiens, UniProt Q8IVH4, K276A).
T1 sequence (Q8IVH4 66-418 K276A limits assumed): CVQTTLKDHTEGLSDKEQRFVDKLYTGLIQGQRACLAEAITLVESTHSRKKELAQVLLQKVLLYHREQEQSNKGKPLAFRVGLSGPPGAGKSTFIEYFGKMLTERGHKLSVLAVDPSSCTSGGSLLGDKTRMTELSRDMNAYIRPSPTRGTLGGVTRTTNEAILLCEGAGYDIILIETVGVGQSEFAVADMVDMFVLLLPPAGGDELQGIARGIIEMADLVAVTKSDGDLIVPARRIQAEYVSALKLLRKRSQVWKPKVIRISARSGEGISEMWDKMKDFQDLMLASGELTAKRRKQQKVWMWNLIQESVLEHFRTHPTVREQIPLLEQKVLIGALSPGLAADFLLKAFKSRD
Conditions: pH 7.5, 150 mM KCl, 2 mM MgCl2, 20 °C; one-site model.

Experiment [2] has as its target T2, human CblA (MMAA) (Homo sapiens, UniProt Q8IVH4, Q273A).
T2 sequence (Q8IVH4 66-418 Q273A limits assumed): T1 sequence (Q8IVH4 66-418 K276A limits assumed) with Q208A, A211K
The settings on record: pH 7.5, 150 mM KCl, 2 mM MgCl2, 20 °C; one-site model.

The target in experiment [3] is T3, human CblA (MMAA) (Homo sapiens, UniProt Q8IVH4, K276E).
T3 sequence (Q8IVH4 66-418 K276E limits assumed): T1 sequence (Q8IVH4 66-418 K276A limits assumed) with A211E
Conditions: pH 7.5, 150 mM KCl, 2 mM MgCl2, 20 °C; one-site model.

The target of experiment [4] is T4, human CblA (MMAA) (Homo sapiens, UniProt Q8IVH4, G274S).
T4 sequence (Q8IVH4 66-418 G274S limits assumed): T1 sequence (Q8IVH4 66-418 K276A limits assumed) with G209S, A211K
The settings on record: pH 7.5, 150 mM KCl, 2 mM MgCl2, 20 °C; one-site model.

The target of experiment [5] is T5, human CblA (MMAA) (Homo sapiens, UniProt Q8IVH4, G278D).
T5 sequence (Q8IVH4 66-418 G278D limits assumed): T1 sequence (Q8IVH4 66-418 K276A limits assumed) with A211K, G213D
Conditions: pH 7.5, 150 mM KCl, 2 mM MgCl2, 20 °C; one-site model.

In experiment [6] the target is T6, human CblA (MMAA) (Homo sapiens, UniProt Q8IVH4).
T6 sequence (Q8IVH4 66-418 limits assumed): T1 sequence (Q8IVH4 66-418 K276A limits assumed) with A211K

Substitutions are numbered along the chain they refer to.

For one molecule, KD and Kd results are on record in paper PMC6642015 (Cell chemical biology, 2019).

As a reminder, the Kd is the constant that tells how readily two partners part at equilibrium. Low values mean higher affinity, high ones lower affinity. In the case of `Nc1nc2c(ncn2[C@@H]2O[C@H](COP(=O)(O)OP(=O)(O)O)[C@@H](O)[C@H]2O)c(=O)[nH]1` [GDP], the KD entry in experiment [1], in experiment [2], in experiment [3], in experiment [4] and in experiment [5] was “largely unaffected by switch III mutations (Table S1)” throughout. Further, the Kd in experiment [6] is 1100 ± 300 nM.
